Experimental data as given in US11896594B2, “Palatable antiparasitic formulations” (Zoetis Services LLC, priority 2018, dated 2024).
“And” between values parts separate entries of the source, which are not always exact repeats. Identical values can stand only once.

System: D. immitis
Experiment: Prevention of heartworm disease in dogs
Format: in vivo
Settings: in vivo, po

Compound: CO/N=C1\C[C@]2(C[C@@H]3C[C@@H](C/C=C(\C)C[C@@H](C)/C=C/C=C4\CO[C@@H]5[C@H](O)C(C)=C[C@@H](C(=O)O3)[C@]45O)O2)O[C@H](/C(C)=C/C(C)C)[C@H]1C [moxidectin]
- rate of efficacy against ML-resistant D. immitis isolate: 98.8% and 99.5%
